Measured values from US9540343B2 (Gilead Sciences, Inc., priority 2011, dated 2017).

Experiments:
HIV-IIIb = experiment: Test A: Antiviral assay in MT4 cells; format: cell-based, HIV-1; settings: MT-4 cells infected with HIV-IIIb, 5 days, CellTiter-Glo; for inhibition at 2 µM: Human immunodeficiency virus 1, IIIB, MT4, 120 h, read-out: % inhibition at 2 μM, percent inhibition of virus-induced cell killing, from dose response curve at 2 uM drug; for % inhibition at 2 μM: percent inhibition of virus-induced cell killing, from dose response curve at 2 uM drug
in vitro = experiment: in vitro
Method in brief: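 Cytoprotection read-out: CellTiter-Glo chemiluminescence after 5 days at 37 °C of HIV-IIIb-infected MT-4 cells (m.o.i. 0.003) with compound in 10-point 3-fold dilutions, quadruplicate, 10% FBS. Cytotoxicity (CC50) measured identically without virus.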

[1] = human, uninfected MT-4 cells, CC50 (nM), same protocol as Test A, CellTiter-Glo

Structure (SMILES)	inhibition at 2 µM (HIV-IIIb) [%]	CC50 at 5 days (in vitro; [1]) [nM]	CC50 at 5 days (in vitro; human, CC50 (nM), uninfected MT-4 cells, same protocol as Test A, CellTiter-Glo) [nM]	% inhibition at 2 μM (HIV-IIIb) [%]
Cc1ccccc1-c1cccnc1[C@H](Cc1cc(F)cc(F)c1)NC(=O)Cc1c[nH]c2ccc(O)cc12 [Example 26, (S)—N-(2-(3,5-difluorophenyl)-1-(3-o-tolylpyridin-2-yl)ethyl)-2-(5-hydroxy-1H-indol-3-yl)acetamide]	70	24500	–	–
NC(=O)c1cc(-c2cccnc2[C@H](Cc2cccc(F)c2)NC(=O)CC2C(=O)Nc3ccc(F)cc32)ccc1F (stereo partly drawn) [Example 253, 2-fluoro-5-(2-((1S)-1-(2-(5-fluoro-2-oxoindolin-3-yl)acetamido)-2-(3-fluorophenyl)ethyl)pyridin-3-yl)benzamide]	27	> 53200	–	–
CC(C)(C)OC(=O)NCc1ccc2c(CC(=O)N[C@@H](Cc3cc(F)cc(F)c3)c3ncccc3-c3cccc(C(N)=O)c3)c[nH]c2c1 [Example 502F, (S)-tert-butyl (3-(2-(1-(3-(3-carbamoylphenyl)pyridin-2-yl)-2-(3,5-difluorophenyl)ethylamino)-2-oxoethyl)-1H-indol-6-yl)methylcarbamate]	50	3050	–	–
Cc1cc(=O)n(CC(=O)N[C@@H](Cc2cc(F)cc(F)c2)c2ncccc2-c2cccc(C(N)=O)c2)c2ccccc12 [Example 321, (S)-3-(2-(2-(3,5-difluorophenyl)-1-(2-(4-methyl-2-oxoquinolin-1(2H)-yl)acetamido)ethyl)pyridin-3-yl)benzamide]	30	29700	–	–
Cc1cc2ncn(CC(=O)N[C@@H](Cc3cc(F)cc(F)c3)c3ncncc3-c3ccc(Cl)cc3)c2cc1C [Example 320, (S)—N-(1-(5-(4-chlorophenyl)pyrimidin-4-yl)-2-(3,5-difluorophenyl)ethyl)-2-(5,6-dimethyl-1H-benzo[d]imidazol-1-yl)acetamide]	110	12500	–	–
NC(=O)c1cc(-c2cccnc2[C@H](Cc2cc(F)cc(F)c2)NC(=O)Cn2nc(C(F)F)c3c2C(O)CCC3)ccc1F (stereo partly drawn) [Example 384, 5-(2-((1S)-1-(2-(3-(difluoromethyl)-7-hydroxy-4,5,6,7-tetrahydro-1H-indazol-1-yl)acetamido)-2-(3,5-difluorophenyl)ethyl)pyridin-3-yl)-2-fluorobenzamide]	97	> 53200	–	–
CC(C)(C)OC(=O)NCc1ccc2c(CC(=O)N[C@@H](Cc3cc(F)cc(F)c3)c3ncccc3-c3ccc(Cl)cc3)c[nH]c2c1 [Example 526, (S)-tert-butyl (3-(2-(1-(3-(4-chlorophenyl)pyridin-2-yl)-2-(3,5-difluorophenyl)ethylamino)-2-oxoethyl)-1H-indol-6-yl)methylcarbamate]	50	10000	–	–
C=Cc1cn(CC(=O)N[C@@H](Cc2cc(F)cc(F)c2)c2ncccc2-c2ccc(F)c(C(N)=O)c2)nc1C(F)(F)F [Example 297, (S)-5-(2-(2-(3,5-difluorophenyl)-1-(2-(3-(trifluoromethyl)-4-vinyl-1H-pyrazol-1-yl)acetamido)ethyl)pyridin-3-yl)-2-fluorobenzamide]	14	23300	–	–
Cc1cccc(-c2cccnc2[C@H](Cc2cc(F)cc(F)c2)NC(=O)Cn2nc(C(F)(F)F)c3c2CCCC3)c1 [Example 76, (S)—N-(2-(3,5-difluorophenyl)-1-(3-m-tolylpyridin-2-yl)ethyl)-2-(3-(trifluoromethyl)-4,5,6,7-tetrahydro-1H-indazol-1-yl)acetamide]	20	11500	–	–
O=C(Cn1nc(C(F)F)c2c1C(F)(F)C1CC21)N[C@@H](Cc1cc(F)cc(F)c1)c1ncncc1-c1cnc2[nH]ncc2c1 (stereo partly drawn) [Example 176C, N—((S)-1-(5-(1H-pyrazolo[3,4-b]pyridin-5-yl)pyrimidin-4-yl)-2-(3,5-difluorophenyl)ethyl)-2-(3-(difluoromethyl)-5,5-difluoro-3b,4,4a,5-tetrahydro-1H-cyclopropa[3,4]cyclopenta[1,2-c]pyrazol-1-yl)acetamide]	59	46500	–	–
NC(=O)c1cc(-c2cccnc2[C@H](Cc2cc(F)cc(F)c2)NC(=O)Cn2nc3c(c2C(F)(F)F)CCC3)ccc1F [Example 151E, (S)-5-(2-(2-(3,5-difluorophenyl)-1-(2-(3-(trifluoromethyl)-5,6-dihydrocyclopenta[c]pyrazol-2(4H)-yl)acetamido)ethyl)pyridin-3-yl)-2-fluorobenzamide]	11	20300	–	–
CC(C)(C)OC(=O)N1C[C@@H](Oc2ccccc2)C[C@H]1C(=O)N[C@@H](Cc1cc(F)cc(F)c1)c1ncccc1-c1ccc(F)c(C(N)=O)c1 [Example 161, (2S,4S)-tert-butyl 2-((S)-1-(3-(3-carbamoyl-4-fluorophenyl)pyridin-2-yl)-2-(3,5-difluorophenyl)ethylcarbamoyl)-4-phenoxypyrrolidine-1-carboxylate]	0	9310	–	–
COCc1cc(C(F)(F)F)nn1CC(=O)N[C@@H](Cc1cc(F)cc(F)c1)c1ncccc1-c1ccc(F)c(C(N)=O)c1 [Example 208D]	2	–	> 53200	–
NC(=O)c1cc(-c2cccnc2[C@H](Cc2cc(F)cc(F)c2)NC(=O)Cn2nc(C(F)(F)F)c3c2C2CC2CC3(F)F)ccc1F (stereo partly drawn) [Example 364, 5-(2-((1S)-1-(2-(4,4-difluoro-3-(trifluoromethyl)-5,5a,6,6a-tetrahydrocyclopropa[g]indazol-1(4H)-yl)acetamido)-2-(3,5-difluorophenyl)ethyl)pyridin-3-yl)-2-fluorobenzamide]	38	3760	–	–
O=C(Cn1nc(C(F)F)c2c1C(F)(F)CCC2(F)F)N[C@@H](Cc1cc(F)cc(F)c1)c1ncncc1-c1cnc2[nH]ccc2c1 [Example 288, (S)—N-(1-(5-(1H-pyrrolo[2,3-b]pyridin-5-yl)pyrimidin-4-yl)-2-(3,5-difluorophenyl)ethyl)-2-(3-(difluoromethyl)-4,4,7,7-tetrafluoro-4,5,6,7-tetrahydro-1H-indazol-1-yl)acetamide]	108	16400	–	–
O=C(Cc1c[nH]c2ccc(F)cc12)N[C@@H](Cc1cc(F)cc(F)c1)c1ncccc1-c1cnc2[nH]ccc2c1 [Example 430, (S)—N-(1-(3-(1H-pyrrolo[2,3-b]pyridin-5-yl)pyridin-2-yl)-2-(3,5-difluorophenyl)ethyl)-2-(5-fluoro-1H-indol-3-yl)acetamide]	31	26300	–	–
O=C(Cn1nc(C(F)F)c2c1C(F)(F)CCC2(F)F)N[C@@H](Cc1cc(F)cc(F)c1)c1ncccc1-c1ccc2ccc(=O)[nH]c2c1 [Example 490D, (S)-2-(3-(difluoromethyl)-4,4,7,7-tetrafluoro-4,5,6,7-tetrahydro-1H-indazol-1-yl)-N-(2-(3,5-difluorophenyl)-1-(3-(2-oxo-1,2-dihydroquinolin-7-yl)pyridin-2-yl)ethyl)acetamide]	87	38000	–	–
O=C(Cn1nc(C(F)F)c2c1C1CC1CC2)NC(Cc1cc(F)cc(F)c1)c1ncncc1-c1cnc2[nH]ccc2c1 (single isomer, unassigned) [Example 329]	–	14700	–	99
NC(=O)c1cc(-c2cccnc2[C@H](Cc2cc(F)cc(F)c2)NC(=O)Cn2cc(CNC3CC3)c(C(F)(F)F)n2)ccc1F [Example 335, (S)-5-(2-(1-(2-(4-((cyclopropylamino)methyl)-3-(trifluoromethyl)-1H-pyrazol-1-yl)acetamido)-2-(3,5-difluorophenyl)ethyl)pyridin-3-yl)-2-fluorobenzamide]	3	51100	–	–
O=C(Cn1nc(C(F)F)c2c1C(F)(F)C1CC21)N[C@@H](Cc1cc(F)cc(F)c1)c1ncccc1-c1cnc2c(c1)CCCN2 (stereo partly drawn) [Example 442, (S)—N-(1-(3-(5,6,7,8-tetrahydro-1,8-naphthyridin-3-yl)-pyridin-2-yl)-2-(3,5-difluorophenyl)ethyl)-2-(3-(difluoromethyl)-5,6-dihydro-4,5-(methano)-6,6-difluoro-cyclopenta[c]pyrazol-1(4H)-yl)acetamide]	79	8880	–	–
Cc1cc2ncn(C(CC(F)(F)F)C(=O)N[C@@H](Cc3cc(F)cc(F)c3)c3ncccc3-c3ccc(F)c(C(N)=O)c3)c2cc1C (single isomer, unassigned) [Example 540E]	–	> 53200	–	−4
O=C(Cn1nc(C(F)(F)F)c2c1CCCC2)N[C@@H](Cc1cc(F)cc(F)c1)c1ncccc1-c1cccc(OC(F)(F)F)c1 [Example 84, (S)—N-(2-(3,5-difluorophenyl)-1-(3-(3-(trifluoromethoxy)phenyl)pyridin-2-yl)ethyl)-2-(3-(trifluoromethyl)-4,5,6,7-tetrahydro-1H-indazol-1-yl)acetamide]	18	9050	–	–
N#Cc1cn(CC(=O)N[C@@H](Cc2cc(F)cc(F)c2)c2ncccc2-c2ccc(F)c(C(N)=O)c2)nc1C(F)(F)F [Example 363, (S)-5-(2-(1-(2-(4-cyano-3-(trifluoromethyl)-1H-pyrazol-1-yl)acetamido)-2-(3,5-difluorophenyl)ethyl)pyridin-3-yl)-2-fluorobenzamide]	2	21900	–	–
O=C(Cc1c[nH]c2ccc(F)cc12)N[C@@H](Cc1cc(F)cc(F)c1)c1ncccc1-c1cnc2ccccc2c1 [Example 111, (S)—N-(2-(3,5-difluorophenyl)-1-(3-(quinolin-3-yl)pyridin-2-yl)ethyl)-2-(5-fluoro-1H-indol-3-yl)acetamide]	41	9950	–	–
